Assay results: publication PMC4267990 (Journal of controlled release : official journal of the …, 2014)
In brackets after ≈: the same amount, converted by molar mass. Like-named read-outs stand apart in the source and are kept apart here.

Experiments:
[1] = DOX pharmacokinetics after i.v. administration; conditions: 5 mg DOX/kg
PC-3 xenograft tumor = assay: In vivo antitumor efficacy, PC-3 human prostate cancer xenograft; set-up: species or system male nude mice; conditions: 5 mg/kg i.v. on days 1, 4, 7; based on RTV on day 19
NCI/ADR-RES cells = assay: Intracellular uptake of DOX; format: cell-based; conditions: 6 μg/mL DOX, 1 h (similar at 3 h)
[2] = single i.v.; for Animal death: dead/treated mice
KB 8-5 xenograft tumor = assay: In vivo antitumor efficacy, drug-resistant KB 8-5 xenograft; set-up: species or system female nude mice; conditions: for Tumor growth inhibition rate IR: based on RTV on day 22
[3] = In vitro DOX cumulative release kinetics by dialysis; format: physicochemical; conditions: DPBS pH 7.4 with 0.5% Tween 80, 37 °C, 1 mg DOX/mL
4T1.2 tumor = assay: In vivo antitumor efficacy, 4T1.2 syngeneic murine breast cancer model; set-up: species or system female BALB/c mice; conditions: 10 mg DOX/kg i.v., three consecutive injections
4T1.2 cells = assay: In vitro cytotoxicity, MTT assay; format: cell-based, mouse; conditions: 72 h, DOX concentration

Compound: COc1cccc2c1C(=O)c1c(O)c3c(c(O)c1C2=O)C[C@@](O)(C(=O)CO)C[C@@H]3O[C@H]1C[C@H](N)[C@H](O)[C@H](C)O1 [DOX, Doxorubicin]
- AUC [1]: 5430 ± 110 ng·h/mL
- CL [1]: 18.40 ± 2.39 mL/h
- Vd [1]: 25.32 ± 2.15 mL
- t1/2 ([1]; non-compartment model): 4.20 ± 0.35 h
- Tumor growth inhibition rate IR (PC-3 xenograft tumor): 38.72%
- DOX fluorescence signals in cells (confocal imaging) (NCI/ADR-RES cells): Least amounts of fluorescence signals
- Weight loss ([2]; 5 mg/kg): 2.2%
- Animal death ([2]; 5 mg/kg): 0/3
- Weight loss ([2]; 10 mg/kg): 7.8%
- Animal death ([2]; 10 mg/kg): 0/3
- Animal death ([2]; 15 mg/kg): 2/3
- Animal death ([2]; 15 mg/kg, listed as free DOX): 2 out of 3
- Tumor growth inhibition rate IR (KB 8-5 xenograft tumor; 5 mg/kg i.v. on days 1, 4, 7): 6.13%
- Tumor growth inhibition rate IR (KB 8-5 xenograft tumor; 7.5 mg/kg i.v. on days 1, 4, 7): 20.91%
- body weight change (KB 8-5 xenograft tumor; 5 and 7.5 mg/kg i.v. on days 1, 4, 7): significant weight loss
- amount of released DOX ([3]; after 74 h): 96.35%
- DOX released ([3]; first 9 h): 92.14%
- mortality from systemic toxicity (4T1.2 tumor): all of the mice treated with free DOX died from systemic toxicity on day 7
- IC50 (4T1.2 cells): 0.1867 µg/mL (≈ 0.343 µM)
